Measured values published in patent publication US20260285888A1, “HETEROCYCLIC COMPOUND AND USE THEREOF” (OTSUKA PHARMACEUTICAL CO., LTD., priority 2023, published 2026).

Legend:
in vitro = format: cell-based, human; settings: human, differentiated hl-60 cells, 300 μmol/L, about 24 hours, PMA-differentiated HL-60 cells, LDH; no-treatment 0%, cell lysis buffer 100%; read-out: cytotoxicity (%) Evaluation compound results
Procedure: An HL-60 cell line (human acute promyelocytic leukemia cells) was successively cultured in RPMI 1640 containing 20% fetal bovine serum (FBS) at 37° C. in 95% atmosphere/5% CO2. Before evaluation, the cells were pre-cultured for about 72 hours in the presence of 10 nM phorbol 12-myristate 13-acetate (PMA) to induce macrophage-like differentiation.
Evaluation compounds were dissolved in DMSO to obtain 30 mmol/L solutions (or suspensions). Each DMSO solution was diluted 100-fold with RPMI 1640 containing 2% FBS (final concentration of the compound: 300 μmol/L) to obtain a treatment solution. The culture supernatant of the differentiated HL-60 cells was removed, and each treatment solution was added and cultured for about 24 hours, followed by cytotoxicity evaluation.
The activity of lactate dehydrogenase (LDH) was measured in the treatment solutions exposed to the cells for about 24 hours by using a commercial kit (Cytotoxicity LDH Assay Kit-WST, Dojindo Laboratories) and a plate reader (Tecan Infinite M1000). The obtained measurement values were used to calculate cytotoxicity (%) as comparison values for each evaluation compound-treated group, with the no-treatment group taken as 0% and the cell lysis buffer-treated group taken as 100%. The test was conducted in triplicate in three wells each, and the average values were used as adopted values.

[1] = Study for confirmation of conversion to brexpiprazole in a buffer (stability of the evaluation compounds); format: physicochemical; settings: in buffer, average of duplicate; for Concentration of brexpiprazole formed: 60-minute reaction sample; for Concentration of evaluation compound decreased: decrease in 60-minute vs 0-minute reaction sample
Summary of the method: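 Compounds (final 1 μmol/L, from 100 μmol/L working solutions) incubated in buffer at 37° C. for 0 or 60 min, in duplicate, after 3 min pre-incubation of the reaction solution. Reactions stopped with acetonitrile/isopropanol (4:1) containing internal standards; compound and formed brexpiprazole quantified against 0.01–1 μmol/L calibration samples.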

Concentration of brexpiprazole formed [1] [nM]	Concentration of evaluation compound decreased [1] [nM]	SMILES	cytotoxicity at 24 h, 300 µM (in vitro) [%]
0	40	O=c1ccc2ccc(OCCCC[N+]3(COP(=O)([O-])OCCCCCCCCCO)CCN(c4cccc5sccc45)CC3)cc2[nH]1 [EX 46, (4-(benzo[b]thiophen-4-yl)-1-(4-((2-oxo-1,2-dihydroquinolin-7-yl)oxy)butyl)piperazin-1-ium-1-yl)methyl (9-hydroxynonyl) phosphate]	14
0	0	O=c1ccc2ccc(OCCCC[N+]3(COP(=O)([O-])OCC4(CO)CC4)CCN(c4cccc5sccc45)CC3)cc2[nH]1 [EX 47, (4-(benzo[b]thiophen-4-yl)-1-(4-((2-oxo-1,2-dihydroquinolin-7-yl)oxy)butyl)piperazin-1-ium-1-yl)methyl ((1-(hydroxymethyl)cyclopropyl)methyl) phosphate]	-5
0	-30	CC(C)(CO)COP(=O)([O-])OC[N+]1(CCCCOc2ccc3ccc(=O)[nH]c3c2)CCN(c2cccc3sccc23)CC1 [EX 48, (4-(benzo[b]thiophen-4-yl)-1-(4-((2-oxo-1,2-dihydroquinolin-7-yl)oxy)butyl)piperazin-1-ium-1-yl)methyl (3-hydroxy-2,2-dimethylpropyl) phosphate]	-9
0	50	COCCCOP(=O)([O-])OC[N+]1(CCCCOc2ccc3ccc(=O)[nH]c3c2)CCN(c2cccc3sccc23)CC1 [EX 49, (4-(benzo[b]thiophen-4-yl)-1-(4-((2-oxo-1,2-dihydroquinolin-7-yl)oxy)butyl)piperazin-1-ium-1-yl)methyl (3-methoxypropyl) phosphate]	-7
0	10	COCCCCOP(=O)([O-])OC[N+]1(CCCCOc2ccc3ccc(=O)[nH]c3c2)CCN(c2cccc3sccc23)CC1 [EX 50, (4-(benzo[b]thiophen-4-yl)-1-(4-((2-oxo-1,2-dihydroquinolin-7-yl)oxy)butyl)piperazin-1-ium-1-yl)methyl (4-methoxybutyl) phosphate]	-8
0	-40	O=c1ccc2ccc(OCCCC[N+]3(COP(=O)([O-])OCCOCC4CC4)CCN(c4cccc5sccc45)CC3)cc2[nH]1 [EX 52, (4-(benzo[b]thiophen-4-yl)-1-(4-((2-oxo-1,2-dihydroquinolin-7-yl)oxy)butyl)piperazin-1-ium-1-yl)methyl (2-(cyclopropylmethoxy)ethyl) phosphate]	-1
0	60	COCCOCOCCCCOP(=O)([O-])OC[N+]1(CCCCOc2ccc3ccc(=O)[nH]c3c2)CCN(c2cccc3sccc23)CC1 [EX 53, (4-(benzo[b]thiophen-4-yl)-1-(4-((2-oxo-1.2-dihydroquinolin-7-yl)oxy)butyl)piperazin-1-ium-1-yl)methyl (4-((2-methoxyethoxy)methoxy)butyl) phosphate]	-3
0	140	COCC1CCC(COP(=O)([O-])OC[N+]2(CCCCOc3ccc4ccc(=O)[nH]c4c3)CCN(c3cccc4sccc34)CC2)CC1 (stereo not drawn) [EX 54, (4-(benzo[b]thiophen-4-yl)-1-(4-((2-oxo-1,2-dihydroquinolin-7-yl)oxy)butyl)piperazin-1-ium-1-yl)methyl ((4-(methoxymethyl)cyclohexyl)methyl) phosphate]	-10
0	70	CC1(C)OCC(COP(=O)([O-])OC[N+]2(CCCCOc3ccc4ccc(=O)[nH]c4c3)CCN(c3cccc4sccc34)CC2)CO1 [EX 55, (4-(benzo[b]thiophen-4-yl)-1-(4-((2-oxo-1,2-dihydroquinolin-7-yl)oxy)butyl)piperazin-1-ium-1-yl)methyl ((2,2-dimethyl-1,3-dioxan-5-yl)methyl) phosphate]	-7
0	40	COCC(COC)OP(=O)([O-])OC[N+]1(CCCCOc2ccc3ccc(=O)[nH]c3c2)CCN(c2cccc3sccc23)CC1 [EX 56, (4-(benzo[b]thiophen-4-yl)-1-(4-((2-oxo-1,2-dihydroquinolin-7-yl)oxy)butyl)piperazin-1-ium-1-yl)methyl (1,3-dimethoxypropan-2-yl) phosphate]	-6
0	90	O=C(OCCCCCCOP(=O)([O-])OC[N+]1(CCCCOc2ccc3ccc(=O)[nH]c3c2)CCN(c2cccc3sccc23)CC1)c1ccccc1 [EX 57, (4-(benzo[b]thiophen-4-yl)-1-(4-((2-oxo-1,2-dihydroquinolin-7-yl)oxy)butyl)piperazin-1-ium-1-yl)methyl (6-(benzoyloxy)hexyl) phosphate]	4
0	50	Cc1cccc(C(=O)OCCCCCCOP(=O)([O-])OC[N+]2(CCCCOc3ccc4ccc(=O)[nH]c4c3)CCN(c3cccc4sccc34)CC2)n1 [EX 59, (4-(benzo[b]thiophen-4-yl)-1-(4-((2-oxo-1,2-dihydroquinolin-7-yl)oxy)butyl)piperazin-1-ium-1-yl)methyl (6-((6-methylpicolinoyl)oxy)hexyl) phosphate]	1
0	180	O=c1ccc2ccc(OCCCC[N+]3(COP(=O)([O-])OCCCCBr)CCN(c4cccc5sccc45)CC3)cc2[nH]1 [EX 62, (4-(benzo[b]thiophen-4-yl)-1-(4-((2-oxo-1,2-dihydroquinolin-7-yl)oxy)butyl)piperazin-1-ium-1-yl)methyl (4-bromobutyl) phosphate]	3
0	30	O=c1ccc2ccc(OCCCC[N+]3(COP(=O)([O-])OCCCCCCCBr)CCN(c4cccc5sccc45)CC3)cc2[nH]1 [EX 64, (4-(benzo[b]thiophen-4-yl)-1-(4-((2-oxo-1,2-dihydroquinolin-7-yl)oxy)butyl)piperazin-1-ium-1-yl)methyl (7-bromoheptyl) phosphate]	9
0	170	CSCCCOP(=O)([O-])OC[N+]1(CCCCOc2ccc3ccc(=O)[nH]c3c2)CCN(c2cccc3sccc23)CC1 [EX 66, (4-(benzo[b]thiophen-4-yl)-1-(4-((2-oxo-1,2-dihydroquinolin-7-yl)oxy)butyl)piperazin-1-ium-1-yl)methyl (3-(methylthio)propyl) phosphate]	-2
0	90	CC1(C)OCC(C(=O)OCOP(=O)([O-])OC[N+]2(CCCCOc3ccc4ccc(=O)[nH]c4c3)CCN(c3cccc4sccc34)CC2)CO1 [EX 67, (4-(benzo[b]thiophen-4-yl)-1-(4-((2-oxo-1,2-dihydroquinolin-7-yl)oxy)butyl)piperazin-1-ium-1-yl)methyl (((2,2-dimethyl-1,3-dioxane-5-carbonyl)oxy)methyl) phosphate]	1
0	0	O=C(O)CCCC(=O)OCOP(=O)([O-])OC[N+]1(CCCCOc2ccc3ccc(=O)[nH]c3c2)CCN(c2cccc3sccc23)CC1 [EX 70, (4-(benzo[b]thiophen-4-yl)-1-(4-((2-oxo-1.2-dihydroquinolin-7-yl)oxy)butyl)piperazin-1-ium-1-yl)methyl (((4-carboxybutanoyl)oxy)methyl) phosphate]	-7

SMILES	Concentration of brexpiprazole formed [1] [nM]	Concentration of evaluation compound decreased [1] [nM]	cytotoxicity at 24 h, 300 µM (in vitro) [%]
CC(C)COCCOP(=O)([O-])OC[N+]1(CCCCOc2ccc3ccc(=O)[nH]c3c2)CCN(c2cccc3sccc23)CC1 [EX 51, (4-(benzo[b]thiophen-4-yl)-1-(4-((2-oxo-1,2-dihydroquinolin-7-yl)oxy)butyl)piperazin-1-ium-1-yl)methyl (2-isobutoxyethyl) phosphate]	0	50	-9
CC(C)(C)[Si](C)(C)OCCCCOP(=O)([O-])OC[N+]1(CCCCOc2ccc3ccc(=O)[nH]c3c2)CCN(c2cccc3sccc23)CC1 [EX 60, (4-(benzo[b]thiophen-4-yl)-1-(4-((2-oxo-1,2-dihydroquinolin-7-yl)oxy)butyl)piperazin-1-ium-1-yl)methyl (4-((tert-butyldimethylsilyl)oxy)butyl) phosphate]	0	90	16
